For one series, the system named is BT474 cells. The experiment in a line: Cell proliferation inhibition assay for BT474 (CCK-8). Type of series: cell-based. The note with it: Homo sapiens, BT-474; 72h. How it is done: Human breast cancer BT474 cells was cultured in low glucose DMEM (Life Technologies 12320-032) containing 10% fetal bovine serum (FBS) at 37° C. in a humidified 10% CO2, 90% air incubator. Cells were harvested using trypsin EDTA, counted using a haemocytometer, and plated 10000 cell/well in a 96-well clear tissue culture plate. The cells were incubated for 24 h at 37° C. to allow adherence. A serials of concentrations of each compound (ranging from 30 um to 0.16 nM, 5-fold dilution) in 96-well plate, and incubated for 72h. Each concentration was tested in triplicate wells. During the cell proliferation assay, BT474 cells were cultured in low-glucose DMEM containing 5% FBS, 50 ug/ml gentamicin, and 0.3% v/v DMSO. The culture medium was removed via aspiration, and the cell viability was detected by using CCK-8 cell proliferation kit. The IC50 value measured for each compound in Examples 1 to 7 is <100 nM.

Another series has as its target ErbB2 kinase protein (Homo sapiens (Human), UniProt P04626). The experiment in a line: Kinase assay for ErbB2. The format is biochemical. The following applies: read-out: Kinase inhibition IC50 (nM) ErbB2. How it is done:
The assay is performed similarly to the kinase assay for […] as described above, except ErbB2 kinase protein is used instead of EGFR kinase protein.

A further series addresses EGFR kinase (Homo sapiens (Human), UniProt P00533). The experiment in a line: Kinase assay for EGFR (TR-FRET, LanthaScreen). The format is biochemical. The following applies: read-out: Kinase inhibition IC50 (nM) EGFR. How it is done: The extent to which the compounds of the present invention modulate EGFR kinase activity can be determined using time-resolved Fret (TR-FRET) assay (LanthaScreen® kinase activity assay, from InVitrogen). The assay employs EGFR kinase (PV3872, Invitrogen), Tb-Py20 antibody (PV3552, InVitrogen) and fluorescein-poly GT (PV3610, InVitrogen).
The assay is performed in a Black 384-well plate (available from Corning). EGFR kinase (is diluted in TR-FRET Dilution Buffer (PV3189, InVitrogen) at concentration of 0.4 ug/ml as stock solution, and then 2-fold serial diluted. Addition of 1 mM ATP initiated the reaction, and the reaction is incubated for […] at room temperature. 10 μL of the Tb-antibody (from InVitrogen)+EDTA (from InVitrogen) solution prepared was added to each well of the assay plate and mix briefly, and incubated for 30 min. The signal is monitored by using M5 microplate reader (Ex=332 nm, Em=488 nm and 518 nm). Each compound is tested in duplicate wells. EGFR without compound is used as control. Staurosporine (available from Sigma) is used as positive control compound. Inhibition was calculated as percentage of the EGFR activity (without compound).
A general note: TR-FRET usually uses a lanthanide donor and a delayed reading to cut background.

In another series the test system is NCI-N87 xenograft. Put plainly: In vivo efficacy in NCI-N87 xenograft mouse model. The note with it: 80 mg/kg p.o. bid. How it is done:
NCI-N87 cell line was purchased from ATCC (American Type Culture Collection) and was cultured in RPMI1640+10% FBS+1% P/S antibiotics.
Male Balb/c nude mice, 6-8 week, 18±2 g (supplier: Shanghai SLAC Laboratory Animal Co. Ltd.) were used for the experiment. The purchased mice were adapted to the environment for 7 days before use, and were housed at 22-25° C. with humidity 40-70%, and light cycle with fluorescent light for 12-hour light (8:00-20:00) 12-hour dark. The mice have free access to food and water.
The cancer cells (NCI-N87) were implanted subcutaneous into the nude mice (right flank) with 5.0×10^6 cells in 0.1 ml PBS (50 mice). When the tumor size reaches a volume of 200 (150-200) mm^3, the tumor-bearing nude mice were randomly assigned into groups (10 mice/group), one group was served as vehicle, one group was administrated with Lapatinib ditosylate monohydrate (80 mg/kg, free base of Lapatinib, not salt, p.o. […]). The other two groups were administrated with NT113 (also referred to as KID 113) ((15 and 30 mg/kg, p.o.q.d, respectively). The administration period lasted for 4 weeks.
The mice were monitored twice daily for appearance and behavior, and for signs of morbidity and/or mortality. The tumor volume was measured twice a week, and the body weight was measured immediately before measuring the tumor volume throughout the whole study.
At end of the experiment (compound administration for four weeks), all the tumor-bearing mice were sacrificed by cervical dislocation under deep anesthesia. The tumor mass was resected, and weighed.
Tumor sizes were measured twice weekly in two dimensions using a caliper, and the volume was expressed in mm^3 using the formula: V=½×a×b^2 where a and b are the long and short diameters of the tumor, respectively. The tumor mass was weighed at the end of the experiment after harvested.
V=½×a×b^2 (a, h is maximum and minimum diameters respectively).
RTV (Relative Tumor Volume)=Vt/Vo • Vo is the tumor volume when the test article is initial administrated • Vt is the tumor volume of every measurement day after test article administration
T/C (%)=TRTV/CRTV×100% • TRTV: RTV of test article-treatment group; CRTV: RTV of control group Inhibition rate (%)=(average tumor volume of control group average cancer volume of test article treatment group)/average tumor volume of control group×100%
The tumor-bearing mice were treated for 4 weeks with different doses of KU (15 mg/kg, 30 mg/kg, […]), qd) and Lapatinib KUA-1, 80 mg/kg, p.o., bid, 7 days/week. At the day-7 after treatment, the RTV TIC KU113 (15 mg/kg, 30 mg/kg) groups were <30%, and the tumor growth inhibition was >70%. but the RTV TIC was 31% and tumor growth inhibition rat was 69% in the lapatinib group. The same result was observed as well when it comes to the tumor weight. On day 28 after treatment, all the tumor-bearing mice were sacrificed, and all the tumor masses were harvested to weigh.

A further series is described as follows: Rat brain concentration. The following applies: predetermined time points. Type of series: in vivo, Sprague Dawley rats. How it is done: Brain concentration: Three rats are for brain collection (2h) only. Three rats are for brain collection (4 h) only. The rest 3 rats are for plasma (9 time points) and brain collection (24h).
Brain Collection and Tissue Processing: Post blood collection, the brain was first perfused intracardially with ˜150 mL of ice-cold, 0.1 M Phosphate Buffered Saline (PBS) at pH7.4. Then, the dura was removed before weighing the brain. The brain was then dissected into smaller pieces, rinsed twice with ˜10 mL PBS, and then flash frozen on dry ice, and stored at −80° C. before analysis.
Before tissue processing, rat brains were thawed. For the preparation of analytical standards, purchased frozen rat brains (from Pelfreez) were similarly thawed, dissected, rinsed with PBS, and 100 μL of Compound A stock solution (at 500 ng/mL and 1, 2 5, 10, and 50 μg/mL in acetonitrile) was spiked directly into the tissue. Both Compound A dosed and spiked brains then underwent the same processing procedures described below.
Briefly, 2 mL of water was added to each brain before homogenization. Homogenize the brain in 2 to 3 sessions, each approximately 15 sec. The mechanical probe of the homogenizer was cleansed in water, 70% ethanol, and ethyl acetate after each sample. The resulting brain homogenates were then extracted with ethyl acetate three times (14 mL total), and centrifuged to separate the aqueous and organic phases after each extraction. Per brain, pooled organic phase were evaporated under a stream of nitrogen at 40° C. and the residues were reconstituted with 4 mL of mobile phase B. Compound A spiked brain samples in the 4 mL solutions had final concentrations of 12.5, 25, 50, 125, 250, 1250 ng/mL. The reconstituted samples were incubated for ˜15 minutes at 60° C. and, vortexed for 10 minutes to fully dissolve the analytes. The samples were centrifuged, and then further diluted with Mobile phase B (shown below) before LC/MS/MS analysis. Dilute 20 μL of reconstituted samples with 1.5 mL mobile phase B. Transfer and inject supernatant to […] system for analysis.

A short description of series [1]: Rat pharmacokinetics studies (plasma). The format is in vivo, Sprague Dawley rats. The note with it: rat. How it is done:
Sample preparation: The test article each was dissolved in 10% DMSO and 90% of (40% HP-β-CD in deionized water) to yield concentration at 2 mg/mL for intravenous and oral administration.
Method development and plasma samples analysis were performed by Analytical Sciences Division of the Testing Facility by means of LC-MS/MS. The analytical results were confirmed using quality control samples for intra-assay variation (within day variation). The accuracy of >66% of the quality control samples was between 80-120% of the known value(s).
Each group consisted of 3 male Sprague Dawley rats (7-8 week old, 200-300 g body weight). The test articles were administered by a single bolus intravenous injection via the lateral tail vein or via oral gavage.
Blood samples (approximately 300 μl) were collected via retro-orbital puncture after anaesthesia using mixed gas (CO2:O2=7:3) into tubes containing EDTA-K3 anticoagulant at appropriate time points. 10 time points (Groups 1-2): Pre-dose and post-dose at 5 min, 15 min, 30 min, 1 h, 2 h, 4 h, 6 h, 8 h and 24 h.
Analysis: The PK blood samples were centrifuged at approximately 8000 rpm for (3 minutes at 2-8° C. and the resulting plasma were separated and stored frozen at approximately −80° C. (following separation, the plasma may be initially placed on ice prior to being stored in the −80° C. freezer). All the plasma samples were labeled with detailed information such as study number, animal number, matrix, time points of collection and date of collection.
Standard set of parameters including Area Under the Curve (AUC(0-t) and AUC(0-∞)), elimination half-live (T1/2), maximum plasma concentration (Cmax), time to reach maximum plasma concentration (Tmax), clearance (CL), and volume of distribution (Vz) will be calculated using noncompartmental analysis modules in FDA certified pharmacokinetic program WinNonlin Professional v5.2 (Pharsight, USA) by the Study Director. Furthermore, the Bioavailability will be estimated using the following formula:
• AUC(0-t) Area under the curve from the time of dosing to the last measurable concentration • AUC(0-∞) Area under the curve from the time of dosing extrapolated to infinity, based on the last observed concentration • CL Total body clearance, CL=Dose/AUC • Cmax Maximum observed concentration, occurring at Tmax • F Bioavailability • MRT(0-∞) Mean residence time from the time of dosing to infinity • Tmax Time of maximum observed concentration • T1/2 Terminal half-life=In(2)/λz • Vz Volume of distribution based on the terminal phase

SMILES strings stand for the structures. Entries after “also recorded” stand apart in the source; their conditions may differ. Bounds are passed on as bounds.

Sequence of EGFR kinase (P00533 668-1210): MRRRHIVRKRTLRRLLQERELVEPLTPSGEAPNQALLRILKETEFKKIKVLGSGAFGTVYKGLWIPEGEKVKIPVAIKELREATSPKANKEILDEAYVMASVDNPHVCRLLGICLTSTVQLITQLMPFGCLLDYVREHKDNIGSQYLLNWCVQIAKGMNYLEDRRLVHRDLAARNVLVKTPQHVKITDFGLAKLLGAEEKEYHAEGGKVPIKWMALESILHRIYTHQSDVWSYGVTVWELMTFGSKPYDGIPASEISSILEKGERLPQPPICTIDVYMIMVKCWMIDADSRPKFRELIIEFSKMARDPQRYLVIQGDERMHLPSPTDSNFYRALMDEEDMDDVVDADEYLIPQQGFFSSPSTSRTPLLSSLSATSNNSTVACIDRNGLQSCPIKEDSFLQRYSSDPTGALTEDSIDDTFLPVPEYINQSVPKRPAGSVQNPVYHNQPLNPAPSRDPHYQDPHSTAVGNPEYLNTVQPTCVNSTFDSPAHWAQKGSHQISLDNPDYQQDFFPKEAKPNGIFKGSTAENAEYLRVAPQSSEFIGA
Sequence of ErbB2 kinase protein (P04626 23-1255): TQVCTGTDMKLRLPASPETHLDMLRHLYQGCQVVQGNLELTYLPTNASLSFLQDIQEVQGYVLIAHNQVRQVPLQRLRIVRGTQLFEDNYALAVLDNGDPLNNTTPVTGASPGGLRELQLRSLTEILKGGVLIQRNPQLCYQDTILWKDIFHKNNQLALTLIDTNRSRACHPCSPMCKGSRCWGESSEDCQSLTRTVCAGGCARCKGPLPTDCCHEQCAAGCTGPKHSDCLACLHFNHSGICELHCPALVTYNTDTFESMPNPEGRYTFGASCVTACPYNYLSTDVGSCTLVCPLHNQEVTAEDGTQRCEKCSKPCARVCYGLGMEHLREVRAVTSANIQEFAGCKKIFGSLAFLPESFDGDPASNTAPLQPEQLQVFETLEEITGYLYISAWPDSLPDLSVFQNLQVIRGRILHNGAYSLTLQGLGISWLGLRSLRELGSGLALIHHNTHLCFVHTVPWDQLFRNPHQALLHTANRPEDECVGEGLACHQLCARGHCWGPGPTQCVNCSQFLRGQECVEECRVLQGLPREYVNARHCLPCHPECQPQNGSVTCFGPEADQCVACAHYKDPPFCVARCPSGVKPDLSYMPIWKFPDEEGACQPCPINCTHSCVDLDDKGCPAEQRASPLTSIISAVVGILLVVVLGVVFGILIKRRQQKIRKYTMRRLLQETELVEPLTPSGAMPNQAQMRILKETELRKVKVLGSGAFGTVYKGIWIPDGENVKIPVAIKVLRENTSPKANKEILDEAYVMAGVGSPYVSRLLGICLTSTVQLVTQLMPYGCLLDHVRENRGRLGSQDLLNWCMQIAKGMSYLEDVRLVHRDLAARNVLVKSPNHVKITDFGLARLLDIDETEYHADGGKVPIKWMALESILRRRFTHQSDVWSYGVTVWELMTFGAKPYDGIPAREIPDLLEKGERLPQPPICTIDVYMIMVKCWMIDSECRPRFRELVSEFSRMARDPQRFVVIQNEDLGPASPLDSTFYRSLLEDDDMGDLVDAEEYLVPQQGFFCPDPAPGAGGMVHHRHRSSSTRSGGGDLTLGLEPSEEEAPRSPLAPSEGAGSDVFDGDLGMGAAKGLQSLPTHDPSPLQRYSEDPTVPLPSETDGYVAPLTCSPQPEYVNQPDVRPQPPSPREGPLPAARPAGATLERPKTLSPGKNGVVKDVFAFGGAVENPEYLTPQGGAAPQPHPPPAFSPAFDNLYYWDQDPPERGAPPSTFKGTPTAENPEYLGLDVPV

With `CN(C)C/C=C/C(=O)Nc1cc2c(Nc3ccc(F)c(Cl)c3)ncnc2cc1C#CC1CCOC1` (stereo not shown) [Example 1, (E)-N-(4-(3-chloro-4-fluorophenylamino)-7-(2-(tetrahydrofuran-3-yl)ethynyl)quinazolin-6-yl)-4-(dimethylamino)but-2-enamide], the IC50 in the series on BT474 cells, at ErbB2 kinase protein and on EGFR kinase was less than 100 nM each time.

In the case of `CN(C)C/C=C/C(=O)Nc1cc2c(Nc3ccc(F)c(Cl)c3)ncnc2cc1C#C[C@@H]1CCCO1` [Example 2, (E)-N-(4-(3-chloro-4-fluorophenylamino)-7-(2-((S)-tetrahydrofuran-2-yl)ethynyl)quinazolin-6-yl)-4-(dimethylamino)but-2-enamide], the IC50 in the series on BT474 cells, at ErbB2 kinase protein and on EGFR kinase was less than 100 nM each time.

For `CN(C)C/C=C/C(=O)Nc1cc2c(Nc3ccc(F)c(Cl)c3)ncnc2cc1C#C[C@H]1CCCO1` [Example 3, (E)-N-(4-(3-chloro-4-fluorophenylamino)-7-(2-((R)-tetrahydrofuran-2-yl)ethynyl)quinazolin-6-yl)-4-(dimethylamino)but-2-enamide], the IC50 with BT474 cells, on ErbB2 kinase protein and at EGFR kinase was less than 100 nM each time.

For `CN(C)C/C=C/C(=O)Nc1cc2c(Nc3ccc(F)c(Cl)c3)ncnc2cc1C#CC12COCC1C2` (stereo not shown) [Example 5, (E)-N-(4-(3-chloro-4-fluorophenylamino)-7-(2-(3-oxa-bicyclo[3.1.0]hexan-1-yl)ethynyl)quinazolin-6-yl)-4-(dimethylamino)but-2-enamide], the IC50 in the series with BT474 cells, on ErbB2 kinase protein and on EGFR kinase was less than 100 nM in each case.

Regarding `CN(C)C/C=C/C(=O)Nc1cc2c(Nc3ccc(F)c(Cl)c3)ncnc2cc1C#C[C@]12COC[C@H]1C2` [Example 6, (E)-N-(4-(3-chloro-4-fluorophenylamino)-7-(2-((1R,5S)-3-oxa-bicyclo[3.1.0]hexan-1-yl)ethynyl)quinazolin-6-yl)-4-(dimethylamino)but-2-enamide], the IC50 in the series on BT474 cells, on ErbB2 kinase protein and on EGFR kinase was less than 100 nM throughout.

With `CN(C)C/C=C/C(=O)Nc1cc2c(Nc3ccc(F)c(Cl)c3)ncnc2cc1C#C[C@@]12COC[C@@H]1C2` [Example 7, (E)-N-(4-(3-chloro-4-fluorophenylamino)-7-(2-((1S,5R)-3-oxa-bicyclo[3.1.0]hexan-1-yl)ethynyl)quinazolin-6-yl)-4-(dimethylamino)but-2-enamide], the IC50 in the series on BT474 cells, at ErbB2 kinase protein and on EGFR kinase was less than 100 nM throughout.

In the series on NCI-N87 xenograft (day 28 (last day of the study)), `CS(=O)(=O)CCNCc1ccc(-c2ccc3ncnc(Nc4ccc(OCc5cccc(F)c5)c(Cl)c4)c3c2)o1` [Lapatinib, reference compound] came in with a tumor inhibition rate of 92.9%. Further, in the series on NCI-N87 xenograft (day-7 after treatment), the “RTV T/C” value stood at 31% and the “tumor growth inhibition rate” value is listed as 69%.

Turning to `CN(C)C/C=C/C(=O)Nc1cc2c(Nc3ccc(F)c(Cl)c3)ncnc2cc1O[C@H]1CCOC1` [afatinib, reference compound], the Kp in “Rat brain concentration” (Sprague Dawley, brain/plasma, read-out: Brain/plasma concentration ratio) is less than 0.05. Also, in “Rat brain concentration”, the brain concentration is less than 1 ng/g and the “brain concentration (detectability)” value is “no detectable brain concentration; also recorded: below detection limit”. Also, the “rat PK (qualitative)” value in series [1] is “poor PK”.

The values are drawn from US11524956B2, “Alkyne substituted quinazoline compound and methods of use” (Newgen Therapeutics, Inc., priority 2011, dated 2022).
